SMILES strings stand for the structures.

The assay concerns skin hair follicles and sebaceous glands of rats. In words: Rat hair loss model: histopathological grading of skin hair follicles and sebaceous glands. The class given is in vivo, Wistar rats. The following applies: 60 days, 10 rats per group; for number of rats with hair follicle and sebaceous gland grade +++: grade +++ (most severe); for number of rats with hair follicle and sebaceous gland grade ±: grade ± (lesions limited); for number of rats with hair follicle and sebaceous gland grade −: grade − (normal structure). From the text: Wistar rats were, according to weights, randomly divided into the negative control group (75% ethanol for external use), model group (75% ethanol for external use), positive control group (external 5% minoxidil tincture), CLY-1 external treatment group (external 5% CLY-1 tincture), CLY-2 external treatment group (external 5% CLY-2 tincture), CLY-3 external treatment group (external 5% CLY-3 tincture), CLY-4 external treatment group (external 5% CLY-4 tincture), and CLY-5 external treatment group (external 5% CLY-5 tincture) according to their body weight CLY-8 external treatment group (external 5% CLY-8 tincture), CLY-11 external treatment group (external 5% CLY-11 tincture), CLY-19 external treatment group (external 5% CLY-19 tincture), CLY-36 external treatment group (external 5% CLY-36 tincture), CLY-39 external treatment group (external 5% CLY-39 tincture), CLY-1 intravenous injection group (2 mg/kg·d), CLY-3 intravenous injection group (2 mg/kg·d), CLY-4 intravenous injection group (2 mg/kg·d) CLY-5 intravenous injection group (2 mg/kg·d), CLY-8 intravenous injection group (2 mg/kg·d), CLY-11 intravenous injection group (2 mg/kg·d), CLY-19 intravenous injection group (2 mg/kg·d), CLY-36 intravenous injection group (2 mg/kg·d), and CLY-39 intravenous injection group (2 mg/kg·d), with 10 rats in each group. Before the experiment, an area of 4 cm×5 cm was selected on each rat on the back of the neck to remove hair as the observation area. In addition to the negative control group, rats were subcutaneously injected with testosterone propionate injection [5 ml/(kg·d)] once a day for 60 days to establish the androgenic alopecia (AGA) model. […] At the same time, the drug was applied to the observation area on the back of the rats in the corresponding drug group at the rate of 2 mL/(one time), twice a day, at an interval of 8 hours; Intravenous administration once a day. The negative control group and the model control group were smeared with 75% ethanol solution, 2 mL/(one rat per time), twice a day, for 60 days.
Took 10 hairs from the observation area on the back of each rat every 15 days after administration, and measured the hair length with a vernier caliper. After 60 days of administration, the skin of the experimental observation area was taken for routine tissue dehydration, paraffin embedding, HE staining, and light microscopy to observe the histopathological changes of the rat skin hair follicles and sebaceous glands. Semi-quantitative analysis was performed for each group. The grading criteria are as follows: the normal structure of dermal tissue cells, subcutaneous hair follicles, and sebaceous glands is marked as […]: no hyperplasia of dermal tissue is found, the lesions of hair follicles and sebaceous glands are limited, and no inflammation is found under the skin is marked as “+”: no obvious hyperplasia of dermal tissue is found, and the follicles are obviously cystic. No obvious hyperplasia of sebaceous glands is found, and no inflammation is found under the skin is marked as “+”: the dermal tissue has segmental hyperplasia, which is not obvious, A small number of hair follicles have cystic changes, and the sebaceous glands have mild hyperplasia and hypertrophy. There is no obvious inflammation under the skin, which is marked as “++”: the dermal tissue cells of the skin have different degrees of segmental hyperplasia, and some hair follicles have cystic changes, showing uneven size of hair follicles, and no cells around. The sebaceous glands have hyperplasia, and the nuclei in the proliferative glands are few. A few rats have mild inflammatory hyperplasia under the skin, which is marked as “+++”.

On to `O=C(c1ccc(-c2ccccc2Cl)cc1)N(c1ncccc1Cl)[C@@H]1CCCNC1` [CLY-36], for which, under “external 5% tincture”, the “number of rats with hair follicle and sebaceous gland grade +++” value amounted to 0; the “number of rats with hair follicle and sebaceous gland grade ++” value amounted to 3; the “number of rats with hair follicle and sebaceous gland grade +” value amounted to 2; the “number of rats with hair follicle and sebaceous gland grade ±” value is recorded as 5. For the same molecule, where the note is “external 5% tincture”, the “number of rats with hair follicle and sebaceous gland grade −” value is 0. In addition, under “intravenous 2 mg/kg·d”, the “number of rats with hair follicle and sebaceous gland grade +++” value is given as 0; the “number of rats with hair follicle and sebaceous gland grade ++” value is given as 3; the “number of rats with hair follicle and sebaceous gland grade +” value is listed as 1; the “number of rats with hair follicle and sebaceous gland grade ±” value was 6. In addition, for the setting “intravenous 2 mg/kg·d”, the “number of rats with hair follicle and sebaceous gland grade −” value came out at 0.
As to `CNC1CCCC(N(C(=O)c2ccc(-n3nnc4cccnc43)cc2)c2ncccc2Cl)C1` (stereo not drawn) [CLY-3], for the setting “external 5% tincture”, the “number of rats with hair follicle and sebaceous gland grade +++” value amounted to 0; the “number of rats with hair follicle and sebaceous gland grade ++” value was 1; the “number of rats with hair follicle and sebaceous gland grade +” value was 5; the “number of rats with hair follicle and sebaceous gland grade ±” value is given as 4. The “number of rats with hair follicle and sebaceous gland grade −” value (external 5% tincture) worked out at 0. Besides, under “intravenous 2 mg/kg·d”, the “number of rats with hair follicle and sebaceous gland grade +++” value is reported as 0; the “number of rats with hair follicle and sebaceous gland grade ++” value is 1; the “number of rats with hair follicle and sebaceous gland grade +” value came out at 4; the “number of rats with hair follicle and sebaceous gland grade ±” value is reported as 5. Moreover, the “number of rats with hair follicle and sebaceous gland grade −” value (intravenous 2 mg/kg·d) amounted to 0.
Consider `Nc1ccccc1-c1ccc(C(=O)N(c2ncccc2Cl)[C@@H]2CCCNC2)cc1` [CLY-39], for which, where the note is “external 5% tincture”, the “number of rats with hair follicle and sebaceous gland grade +++” value amounted to 0; the “number of rats with hair follicle and sebaceous gland grade ++” value turned out to be 1; the “number of rats with hair follicle and sebaceous gland grade +” value came to 3; the “number of rats with hair follicle and sebaceous gland grade ±” value is reported as 6. In addition, the “number of rats with hair follicle and sebaceous gland grade −” value (external 5% tincture) was 0. In addition, for the setting “intravenous 2 mg/kg·d”, the “number of rats with hair follicle and sebaceous gland grade +++” value worked out at 0; the “number of rats with hair follicle and sebaceous gland grade ++” value turned out to be 1; the “number of rats with hair follicle and sebaceous gland grade +” value worked out at 2; the “number of rats with hair follicle and sebaceous gland grade ±” value is 7. Also, under “intravenous 2 mg/kg·d”, the “number of rats with hair follicle and sebaceous gland grade −” value amounted to 0.
Regarding `O=C(c1ccc(-n2nnc3cccnc32)cc1)N(c1ncccc1Cl)[C@@H]1CCNC1` [CLY-8, (R)-4-(3H-[1,2,3]triazolo[4,5-b]pyridin-3-yl)-N-(3-chloropyridin-2-yl)-N-(pyrrolidin-3-yl)benzamide], for the setting “external 5% tincture”, the “number of rats with hair follicle and sebaceous gland grade +++” value is listed as 0; the “number of rats with hair follicle and sebaceous gland grade ++” value was 0; the “number of rats with hair follicle and sebaceous gland grade +” value is 3; the “number of rats with hair follicle and sebaceous gland grade ±” value was determined as 7. Further, the “number of rats with hair follicle and sebaceous gland grade −” value (external 5% tincture) amounted to 0. Under “intravenous 2 mg/kg·d”, the “number of rats with hair follicle and sebaceous gland grade +++” value was found to be 0; the “number of rats with hair follicle and sebaceous gland grade ++” value came to 0; the “number of rats with hair follicle and sebaceous gland grade +” value is 2; the “number of rats with hair follicle and sebaceous gland grade ±” value is recorded as 8. Besides, the “number of rats with hair follicle and sebaceous gland grade −” value (intravenous 2 mg/kg·d) is 0.
For `Nc1cc(N2CCCCC2)nc(N)[n+]1[O-]` [Positive control group, minoxidil, reference compound], under “external 5% tincture”, the “number of rats with hair follicle and sebaceous gland grade +++” value came out at 1; the “number of rats with hair follicle and sebaceous gland grade ++” value stood at 3; the “number of rats with hair follicle and sebaceous gland grade +” value is reported as 4; the “number of rats with hair follicle and sebaceous gland grade ±” value is 2. Where the note is “external 5% tincture”, the “number of rats with hair follicle and sebaceous gland grade −” value is reported as 0.

Source of the values: US20240300945A1, “CLY SERIES COMPOUND, PREPARATION METHOD THEREFOR AND USE THEREOF IN PREPARATION OF DRUGS” (NANJING WELLBEST PHARMACEUTICAL CO., LTD, priority 2021, published 2024).
